Results taken from PubChem BioAssay (NCI).
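48-hour exposure; five concentrations; linearly interpolated endpoints. Here, GI50 denotes the concentration required for 50% inhibition of growth. TGI: concentration producing complete growth inhibition.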

What was measured:
Test in all cases: NCI tumour cell line growth inhibition, 48 h
RPMI-8226 leukemia = test system: RPMI-8226 leukemia
MCF7 breast = test system: MCF7 breast
SK-MEL-2 melanoma = test system: SK-MEL-2 melanoma
T-47D breast = test system: T-47D breast
UACC-257 melanoma = test system: UACC-257 melanoma
HCT-15 colon = test system: HCT-15 colon
LOX IMVI melanoma = test system: LOX IMVI melanoma
IGROV1 ovarian = test system: IGROV1 ovarian
EKVX NSCLC = test system: EKVX NSCLC
MDA-MB-435 = test system: MDA-MB-435
SR leukemia = test system: SR leukemia
SF-268 CNS = test system: SF-268 CNS
NCI-H460 lung = test system: NCI-H460 lung
NCI-H226 lung = test system: NCI-H226 lung
OVCAR-4 ovarian = test system: OVCAR-4 ovarian
OVCAR-3 ovarian = test system: OVCAR-3 ovarian
U251 CNS = test system: U251 CNS
MALME-3M melanoma = test system: MALME-3M melanoma
UACC-62 melanoma = test system: UACC-62 melanoma
RXF 393 renal = test system: RXF 393 renal
ACHN renal = test system: ACHN renal
SN12C renal = test system: SN12C renal
OVCAR-8 ovarian = test system: OVCAR-8 ovarian
SNB-75 CNS = test system: SNB-75 CNS
SF-539 CNS = test system: SF-539 CNS
NCI-H522 lung = test system: NCI-H522 lung
K-562 leukemia = test system: K-562 leukemia
PC-3 prostate = test system: PC-3 prostate
MDA-MB-231 breast = test system: MDA-MB-231 breast
SF-295 CNS = test system: SF-295 CNS
HL-60(TB) leukemia = test system: HL-60(TB) leukemia
HT29 colon = test system: HT29 colon
HCT-116 colon = test system: HCT-116 colon
SK-OV-3 ovarian = test system: SK-OV-3 ovarian
NCI/ADR-RES ovarian = test system: NCI/ADR-RES ovarian
SK-MEL-5 melanoma = test system: SK-MEL-5 melanoma
BT-549 breast = test system: BT-549 breast
SNB-19 CNS = test system: SNB-19 CNS
SK-MEL-28 melanoma = test system: SK-MEL-28 melanoma
MOLT-4 leukemia = test system: MOLT-4 leukemia
NCI-H23 lung = test system: NCI-H23 lung
CAKI-1 renal = test system: CAKI-1 renal
786-0 renal = test system: 786-0 renal
DU-145 prostate = test system: DU-145 prostate
KM12 colon = test system: KM12 colon
HCC-2998 colon = test system: HCC-2998 colon
HOP-62 NSCLC = test system: HOP-62 NSCLC
A498 renal = test system: A498 renal
OVCAR-5 ovarian = test system: OVCAR-5 ovarian
CCRF-CEM leukemia = test system: CCRF-CEM leukemia
UO-31 renal = test system: UO-31 renal
M14 melanoma = test system: M14 melanoma
TK-10 renal = test system: TK-10 renal
A549 NSCLC = test system: A549 NSCLC
COLO 205 colon = test system: COLO 205 colon
SW-620 colon = test system: SW-620 colon
HS 578T breast = test system: HS 578T breast

`COc1ccccc1/C=C/[N+](=O)[O-]` gave a GI50 (RPMI-8226 leukemia) of 1.05 µM, a TGI (RPMI-8226 leukemia) of 3.78 µM and a GI50 (MCF7 breast) of 2.43 µM. The TGI (MCF7 breast) was 7.99 µM, the GI50 (SK-MEL-2 melanoma) was 5.4 µM and the TGI (SK-MEL-2 melanoma) was 17.2 µM. It also gave a GI50 (T-47D breast) of 3.17 µM, a TGI (T-47D breast) of 16.9 µM and a GI50 (UACC-257 melanoma) of 1.84 µM. For the same compound, the TGI (UACC-257 melanoma) was 4.32 µM, the GI50 (HCT-15 colon) was 2.32 µM and the TGI (HCT-15 colon) was 6.98 µM. For the same compound, the GI50 (LOX IMVI melanoma) was 1.4 µM, the TGI (LOX IMVI melanoma) was 2.86 µM and the GI50 (IGROV1 ovarian) was 2.54 µM. The TGI (IGROV1 ovarian) was 8.32 µM, the GI50 (EKVX NSCLC) was 15.3 µM and the TGI (EKVX NSCLC) was 58.3 µM. For the same compound, the GI50 (MDA-MB-435) was 2.59 µM, the TGI (MDA-MB-435) was 10.5 µM and the GI50 (SR leukemia) was 0.886 µM. The TGI (SR leukemia) was 5.02 µM, the GI50 (SF-268 CNS) was 2.39 µM and the TGI (SF-268 CNS) was 5.12 µM. It also gave a GI50 (NCI-H460 lung) of 2.03 µM, a TGI (NCI-H460 lung) of 4.35 µM and a GI50 (NCI-H226 lung) of 3.41 µM. The TGI (NCI-H226 lung) was 11.7 µM, the GI50 (OVCAR-4 ovarian) was 3.56 µM and the TGI (OVCAR-4 ovarian) was 37.7 µM. It also gave a GI50 (OVCAR-3 ovarian) of 2.23 µM, a TGI (OVCAR-3 ovarian) of 4.67 µM and a GI50 (U251 CNS) of 2.07 µM. It also gave a TGI (U251 CNS) of 5.72 µM, a GI50 (MALME-3M melanoma) of 2.82 µM and a TGI (MALME-3M melanoma) of 9.11 µM. It also gave a GI50 (UACC-62 melanoma) of 1.95 µM, a TGI (UACC-62 melanoma) of 4.13 µM and a GI50 (RXF 393 renal) of 1.43 µM. It also gave a TGI (RXF 393 renal) of 2.81 µM, a GI50 (ACHN renal) of 2.01 µM and a TGI (ACHN renal) of 3.84 µM. For the same compound, the GI50 (SN12C renal) was 2.47 µM, the TGI (SN12C renal) was 8.03 µM and the GI50 (OVCAR-8 ovarian) was 3.1 µM. It also gave a TGI (OVCAR-8 ovarian) of 10.4 µM, a GI50 (SNB-75 CNS) of 3.57 µM and a TGI (SNB-75 CNS) of 44.5 µM. For the same compound, the GI50 (SF-539 CNS) was 2.16 µM, the TGI (SF-539 CNS) was 4.32 µM and the GI50 (NCI-H522 lung) was 1.08 µM. For the same compound, the TGI (NCI-H522 lung) was 2.47 µM, the GI50 (K-562 leukemia) was 1.56 µM and the TGI (K-562 leukemia) was 7.37 µM. For the same compound, the GI50 (PC-3 prostate) was 2.41 µM, the TGI (PC-3 prostate) was 6.93 µM and the GI50 (MDA-MB-231 breast) was 2.06 µM. For the same compound, the TGI (MDA-MB-231 breast) was 6.93 µM, the GI50 (SF-295 CNS) was 4.67 µM and the TGI (SF-295 CNS) was 20.5 µM. For the same compound, the GI50 (HL-60(TB) leukemia) was 1.92 µM, the TGI (HL-60(TB) leukemia) was 4.49 µM and the GI50 (HT29 colon) was 2.01 µM. It also gave a TGI (HT29 colon) of 3.85 µM, a GI50 (HCT-116 colon) of 1.51 µM and a TGI (HCT-116 colon) of 2.9 µM. For the same compound, the GI50 (SK-OV-3 ovarian) was 5.81 µM, the TGI (SK-OV-3 ovarian) was 17.7 µM and the GI50 (NCI/ADR-RES ovarian) was 2.92 µM. It also gave a TGI (NCI/ADR-RES ovarian) of 11.6 µM, a GI50 (SK-MEL-5 melanoma) of 2 µM and a TGI (SK-MEL-5 melanoma) of 4.03 µM. It also gave a GI50 (BT-549 breast) of 2.09 µM, a TGI (BT-549 breast) of 4.13 µM and a GI50 (SNB-19 CNS) of 4.85 µM. The TGI (SNB-19 CNS) was 19 µM, the GI50 (SK-MEL-28 melanoma) was 1.62 µM and the TGI (SK-MEL-28 melanoma) was 3.66 µM. It also gave a GI50 (MOLT-4 leukemia) of 2.54 µM, a TGI (MOLT-4 leukemia) of 6.45 µM and a GI50 (NCI-H23 lung) of 1.96 µM. It also gave a TGI (NCI-H23 lung) of 4.6 µM, a GI50 (CAKI-1 renal) of 2.95 µM and a TGI (CAKI-1 renal) of 46.6 µM. For the same compound, the GI50 (786-0 renal) was 1.82 µM, the TGI (786-0 renal) was 3.35 µM and the GI50 (DU-145 prostate) was 1.95 µM. It also gave a TGI (DU-145 prostate) of 3.63 µM, a GI50 (KM12 colon) of 3.02 µM and a TGI (KM12 colon) of 8.59 µM. It also gave a GI50 (HCC-2998 colon) of 1.76 µM, a TGI (HCC-2998 colon) of 3.24 µM and a GI50 (HOP-62 NSCLC) of 2.57 µM. The TGI (HOP-62 NSCLC) was 7.12 µM, the GI50 (A498 renal) was 1.93 µM and the TGI (A498 renal) was 5.03 µM. The GI50 (OVCAR-5 ovarian) was 3.55 µM, the TGI (OVCAR-5 ovarian) was 14.1 µM and the GI50 (CCRF-CEM leukemia) was 2.16 µM. For the same compound, the TGI (CCRF-CEM leukemia) was 6.47 µM, the GI50 (UO-31 renal) was 1.45 µM and the TGI (UO-31 renal) was 2.8 µM. The GI50 (M14 melanoma) was 1.89 µM, the TGI (M14 melanoma) was 3.94 µM and the GI50 (TK-10 renal) was 2.81 µM. It also gave a TGI (TK-10 renal) of 6.31 µM, a GI50 (A549 NSCLC) of 3 µM and a TGI (A549 NSCLC) of 10.4 µM. The GI50 (COLO 205 colon) was 2.12 µM, the TGI (COLO 205 colon) was 4.52 µM and the GI50 (SW-620 colon) was 1.56 µM. For the same compound, the TGI (SW-620 colon) was 3.19 µM, the GI50 (HS 578T breast) was 2.79 µM and the TGI (HS 578T breast) was 8.83 µM.
